Columns and labels:
Assay in all cases: relative viability (nuclei count vs DMSO), 5 days (fraction); higher = more cells survive
[1] = compound: CC1=C(C(=NN1)C)CC2=C(C3=C(S2)N(C(=O)N(C3=O)C)CC(C)C)C(=O)N4C[C@@H](CO4)O + CC(=O)Nc1cccc(-n2c(=O)n(C3CC3)c(=O)c3c(Nc4ccc(I)cc4F)n(C)c(=O)c(C)c32)c1 [Trametinib] (partner 0.02 µM)
In short: (§1)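 Lung cancer cell lines in 1536-well plates got either a single drug or a fixed anchor-drug dose together with five library-drug doses (not always all listed) in √10 steps, by pin tool, on the day after seeding. Nuclei were counted after 5 days, and relative viability is the treated-to-vehicle ratio of nuclei counts. Values are medians of duplicate plates.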

[2] = compound: CC1=C(C(=NN1)C)CC2=C(C3=C(S2)N(C(=O)N(C3=O)C)CC(C)C)C(=O)N4C[C@@H](CO4)O + CC1(C)CCC(c2ccc(Cl)cc2)=C(CN2CCN(c3ccc(C(=O)NS(=O)(=O)c4ccc(N[C@H](CCN5CCOCC5)CSc5ccccc5)c(S(=O)(=O)C(F)(F)F)c4)cc3)CC2)C1 [Navitoclax] (partner 0.5 µM)
In short: as §1

[3] = compound: CC1=C(C(=NN1)C)CC2=C(C3=C(S2)N(C(=O)N(C3=O)C)CC(C)C)C(=O)N4C[C@@H](CO4)O + COc1cc2c(Oc3ccc(NC(=O)C4(C(=O)Nc5ccc(F)cc5)CC4)cc3F)ccnc2cc1OCCCN1CCOCC1 [Foretinib] (partner 0.25 µM)
In short: as §1

[4] = compound: CC1=C(C(=NN1)C)CC2=C(C3=C(S2)N(C(=O)N(C3=O)C)CC(C)C)C(=O)N4C[C@@H](CO4)O + Cc1cc(Nc2cc(N3CCN(C)CC3)nc(Sc3ccc(NC(=O)C4CC4)cc3)n2)n[nH]1 [Tozasertib] (partner 0.1 µM)
In short: as §1

Q: How did the relative viability ([1]; first compound 0.0025 µM) turn out when UMC-11 was run?
A: Its relative viability is 0.842.

Q: And the relative viability ([1]; first compound 0.007906 µM)?
A: The relative viability was 0.84.

Q: And the relative viability ([1]; first compound 0.025 µM)?
A: Its relative viability is 0.83.

Q: What about the relative viability ([1]; first compound 0.07906 µM) of the same cell line?
A: The relative viability was 0.677.

Q: And the relative viability ([1]; first compound 0.25 µM)?
A: The relative viability was 0.993.

Q: What about the relative viability ([2]; first compound 0.0025 µM) of the same cell line?
A: Its relative viability is 0.31.

Q: And the relative viability ([2]; first compound 0.007906 µM)?
A: The relative viability was 0.215.

Q: What about the relative viability ([2]; first compound 0.025 µM) of the same cell line?
A: The relative viability was 0.233.

Q: And the relative viability ([2]; first compound 0.07906 µM)?
A: Its relative viability is 0.211.

Q: And the relative viability ([2]; first compound 0.25 µM)?
A: The relative viability was 0.199.

Q: And the relative viability ([3]; first compound 0.0025 µM)?
A: Its relative viability is 1.16.

Q: What about the relative viability ([3]; first compound 0.007906 µM) of the same cell line?
A: The relative viability was 1.17.

Q: What about the relative viability ([3]; first compound 0.025 µM) of the same cell line?
A: Its relative viability is 0.997.

Q: What about the relative viability ([3]; first compound 0.07906 µM) of the same cell line?
A: The relative viability was 1.07.

Q: And the relative viability ([3]; first compound 0.25 µM)?
A: The relative viability was 1.08.

Q: What about the relative viability ([4]; first compound 0.0025 µM) of the same cell line?
A: The relative viability was 0.199.

Q: What about the relative viability ([4]; first compound 0.007906 µM) of the same cell line?
A: The relative viability was 0.172.

Q: What about the relative viability ([4]; first compound 0.025 µM) of the same cell line?
A: Its relative viability is 0.196.

Q: What about the relative viability ([4]; first compound 0.07906 µM) of the same cell line?
A: The relative viability was 0.207.

Q: And the relative viability ([4]; first compound 0.25 µM)?
A: Its relative viability is 0.175.

Source: the supplement of paper PMC10307832
